Data: patent publication US7842685B2, “S1P1 receptor agonists and use thereof” (Amgen Inc., priority 2008, dated 2010)
Counter-ions that a name gives are not always drawn.

Target: T1, hS1P1 receptor (Homo sapiens, UniProt P21453)
T1 construct: host or cells: U2OS
Experiment: hS1P1 receptor internalization assay (cell imaging-based, hS1P1-eGFP U2OS cells)
Conditions: U2OS cell line expressing hS1P1-eGFP, compounds incubated at 37° C. for one hour; for Emax: 1 h, efficacy (Max), read-out: hS1P1 Receptor Internalization (biolimaging) Max (%); for EC50: GFP-containing endosomes per cell (ArrayScan), read-out: hS1P1 Receptor Internalization (bioimaging) EC50 IP
Experimental: The activity of compounds of the invention was determined by a cell imaging-based assay measuring the degree of hS1P1 receptor internalization and a Ca^2+ mobilization assay measuring the level of S1P receptor activation. The receptor internalization assay was employed to determine the potency and efficacy of compounds on hS1P1 receptor, while Ca^2+ mobilization assay was used to determine selectivity among different S1P receptors and activity on S1P receptors from species such as rat, dog, and cyno. The hS1P1 receptor internalization assay was performed using a U2OS cell line expressing hS1P1-eGFP chimeric protein (Thermo Scientific, Soeborg, Denmark). Upon compound treatment, the hS1P1 receptor was internalized in cytoplasma and formed GFP-containing-endosomes. This event was detected by an automated microscope, ArrayScan (Thermo Scientific Cellomics, Pittsburg), and the degree of receptor internalization is quantitated by counting green fluorescent GFP-containing endosomes per cell. In this assay, hS1P1-eGFP expressing U2OS cells were starved in serum free media for two hours prior to compound treatment. Then compounds were incubated with the starved cells at 37° C. for one hour. Subsequently, compound-treated cells were fixed using 4% formaldehyde, and the nuclei were stained using Hoechst. Then the cells were imaged in ArrayScan. The potency and efficacy of the compounds were determined by plotting the number of green fluorescent GFP-containing endosomes per cell against corresponding compound concentration.

T1 sequence (P21453 whole entry): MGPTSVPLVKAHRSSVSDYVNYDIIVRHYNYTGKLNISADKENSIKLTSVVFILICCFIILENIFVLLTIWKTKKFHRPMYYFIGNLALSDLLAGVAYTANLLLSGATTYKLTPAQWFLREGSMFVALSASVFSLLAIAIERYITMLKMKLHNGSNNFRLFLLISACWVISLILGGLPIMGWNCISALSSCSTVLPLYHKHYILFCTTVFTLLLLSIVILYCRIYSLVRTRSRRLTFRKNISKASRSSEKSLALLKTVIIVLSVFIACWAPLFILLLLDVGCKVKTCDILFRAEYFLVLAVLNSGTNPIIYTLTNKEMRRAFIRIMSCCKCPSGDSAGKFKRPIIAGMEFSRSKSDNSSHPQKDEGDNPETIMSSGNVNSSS

Row | SMILES | Emax [%] | EC50 [nM]
1 | CS(=O)(=O)NCCc1ccc(-c2nc3ccc(C4(c5ccccc5)CC4)nc3s2)c(F)c1 [Example 61, N-(2-(3-fluoro-4-(5-(1-phenylcyclopropyl)[1,3]thiazolo[5,4-b]pyridin-2-yl)phenyl)ethyl)methanesulfonamide] | 491 | 2490
2 | O=C(O)C(=O)NCCc1ccc(-c2nc3ccc(C4(c5ccccc5)CC4)nc3s2)c(F)c1 [Example 57, ((2-(3-fluoro-4-(5-(1-phenylcyclopropyl)[1,3]thiazolo[5,4-b]pyridin-2-yl)phenyl)ethyl)amino)(oxo)acetic acid] | 107 | 35.5
3 | O=C(O)C1CN(Cc2ccc(-c3nc4nc(C5(c6ccccc6)CC5)ccc4s3)c(F)c2)C1 [Example 44, 1-(3-fluoro-4-(5-(1-phenylcyclopropyl)thiazolo[4,5-b]pyridin-2-yl)-benzyl)azetidine-3-carboxylic acid trifluoroacetic acid salt] | 113 | 59.7
4 | O=C(O)C1CN(Cc2ccc(-c3nc4ccc(C5(c6ccccc6)CC=CC5)nc4s3)c(F)c2)C1 [Example 5, 1-((3-fluoro-4-(5-(1-phenylcyclopent-3-enyl)thiazolo[5,4-b]pyridine-2-yl)phenyl)methyl)azetidine-3-carboxylic acid] | 90 | 130
5 | c1ccc(C2(c3ccc4nc(-c5ccc6[nH]ccc6c5)sc4n3)CC2)cc1 [Example 136, 2-(1H-indol-5-yl)-5-(1-phenylcyclopropyl)thiazolo[5,4-b]pyridine] | 101 | 191
6 | O=C(NC1CC1)c1ccc(-c2nc3ccc(C4(c5ccccc5)CC4)nc3s2)c(F)c1 [Example 113, N-cyclopropyl-3-fluoro-4-(5-(1-phenylcyclopropyl)[1,3]thiazolo[5,4-b]pyridin-2-yl)benzamide] | 55 | 732
7 | O=C(O)C1CN(Cc2ccc(-c3nc4ccc(C5(C6CCOCC6)CC5)nc4s3)c(F)c2)C1 [Example 52, 1-(3-fluoro-4-(5-(1-(tetrahydro-2H-pyran-4-yl)cyclopropyl)thiazolo[5,4-b]pyridine-2-yl)benzyl)azetidine-3-carboxylic acid trifluoroacetic acid salt] | 109 | 1190
8 | C[C@H](CC(=O)O)NCc1ccc(-c2nc3ccc(C4(c5ccccc5)CC4)nc3s2)c(F)c1 [Example 91, (R)-3-(3-fluoro-4-(5-(1-phenylcyclopropyl)thiazolo[5,4-b]pyridin-2-yl)benzylamino)butanoic acid hydrochloride] | 131 | 32.7
9 | O=C(O)C1CN(Cc2ccc(-c3nc4ccc(C5(c6ccccc6)CCCCC5)nc4s3)c(F)c2)C1 [Example 7, 1-((3-fluoro-4-(5-(1-phenylcyclohexyl)thiazolo[5,4-b]pyridine-2-yl)-phenyl)methyl)azetidine-3-carboxylic acid] | 108 | 32.6
10 | c1ccc(C2(c3ccc4nc(-c5ccc6c(c5)CCNC6)sc4n3)CC2)cc1 [Example 80, 5-(1-phenylcyclopropyl)-2-(1,2,3,4-tetrahydroisoquinolin-6-yl)thiazolo-[5,4-b]pyridine] | 148 | 563

Molecules with a lower EC50, results first:

Row | Emax [%] | EC50 [nM] | SMILES
11 | 160 | 31.2 | NC1(c2ccc(-c3nc4ccc(C5(c6ccccc6)CC5)nc4s3)c(F)c2)CC1 [Example 20, 1-(3-fluoro-4-(5-(1-phenylcyclopropyl)thiazolo[5,4-b]pyridine-2-yl)phenyl)cyclopropanamine]
12 | 144 | 28.6 | O=C(O)C1CN(Cc2ccc(-c3nc4ccc(C5(c6ccccc6)CCO5)nc4s3)c(F)c2)C1 (stereo not drawn) [Example 9, 1-((3-fluoro-4-(5-(2-phenyloxetan-2-yl)thiazolo[5,4-b]pyridine-2-yl)-phenyl)methyl)azetidine-3-carboxylic acid]
13 | 148 | 21 | Cc1cc(-c2nc3ccc(C4(c5ccccc5)CC4)nc3s2)cc(C)c1CN1CC(C(=O)O)C1 [Example 17, 1-((2,6-dimethyl-4-(5-(1-phenylcyclopropyl)thiazolo[5,4-b]-pyridin-2-yl)phenyl)methyl)azetidine-3-carboxylic acid]
14 | 66 | 20.6 | O=C(O)CCNC(=O)c1ccc(-c2nc3ccc(C4(c5ccccc5)CC4)nc3s2)c(F)c1 [Example 14, 3-(3-fluoro-4-(5-(1-phenylcyclopropyl)thiazolo[5,4-b]pyridine-2-yl)-benzamido)propanoic acid]
15 | 89 | 11.6 | O=C(O)[C@H]1C[C@@H](Nc2ccc(-c3nc4ccc(C5(c6ccccc6)CC5)nc4s3)c(F)c2)C1 [Example 130, cis-3-((3-fluoro-4-(5-(1-phenylcyclopropyl)[1,3]thiazolo[5,4-b]pyridin-2-yl)phenyl)amino)cyclobutanecarboxylic acid]
16 | 105 | 10.9 | O=C(O)c1cn(Cc2ccc(-c3nc4ccc(C5(c6ccccc6)CC5)nc4s3)c(F)c2)cn1 [Example 96, 1-(3-fluoro-4-(5-(1-phenylcyclopropyl)thiazolo[5,4-b]pyridin-2-yl)benzyl)-1H-imidazole-4-carboxylic acid hydrochloride]
17 | 119 | 10.2 | NC(CO)(CO)CCc1ccc(-c2nc3ccc(C4(c5ccccc5)CC4)nc3s2)c(F)c1 [Example 42, 2-amino-2-(3-fluoro-4-(5-(1-phenylcyclopropyl)thiazolo[5,4-b]pyridin-2-yl)phenethyl)propane-1,3-diol hydrochloride]
18 | 117 | 5.9 | O=C(O)C1CN(Cc2ccc(-c3nc4ccc(C5(C6CCCCC6)CC5)nc4s3)c(F)c2)C1 [Example 47, 1-(4-(5-(1-cyclohexylcyclopropyl)thiazolo[5,4-b]pyridine-2-yl)-3-fluorobenzyl)azetidine-3-carboxylic acid trifluoroacetic acid salt]
19 | 126 | 4.5 | O=C(O)[C@@H]1C[C@H](c2ccc(-c3nc4ccc(C5(c6ccccc6)CC5)nc4s3)c(F)c2)CN1 [Example 54, (2S,4R)-4-(3-fluoro-4-(5-(1-phenylcyclopropyl)thiazolo[5,4-b]pyridine-2-yl)phenyl)pyrrolidine-2-carboxylic acid trifluoroacetic acid salt]
20 | 121 | 1.4 | Cc1cc(CN2CC(C(=O)O)C2)ccc1-c1nc2ccc(C3(c4ccccc4)CC3)nc2s1 [Example 19, 1-((3-methyl-4-(5-(1-phenylcyclopropyl)thiazolo[5,4-b]pyridine-2-yl)phenyl)methyl)azetidine-3-carboxylic acid]
21 | 122 | 0.3 | NC(CO)(CCc1ccc(-c2nc3ccc(C4(c5ccccc5)CC4)nc3s2)c(F)c1)COP(=O)(O)O (racemic) [Example 43, (rac)-2-amino-4-(3-fluoro-4-(5-(1-phenylcyclopropyl)thiazolo[5,4-b]pyridine-2-yl)phenyl)-2-(hydroxymethyl)butyl dihydrogen phosphate]
